{
  "source": "patent US11826372B2",
  "about": "“Combinations including ABX196 for the treatment of cancer” (ABIVAX, priority 2016, dated 2023)",
  "key": {"Melanoma B16F10 tumor": {"test_system": "Melanoma B16F10 tumor", "settings": "for T/C (antitumor activity index): B16F10 in C57BL/6 mice, ABX196 100 ng i.v. or 10 ng i.t. Day 10, anti-PD-1 mAb 100 μg i.p. Days 6, 9, 12, 15 and 18", "quoted_text": "The study was performed on a syngeneic in vivo melanoma B16F10 tumor-bearing mouse model. B16F10 tumor cells were subcutaneously inoculated in immuno-competent C57BL/6 mice.\nMelanoma B16F10 tumor cells were subcutaneously inoculated at day 0 by injecting cells in the flank of 8-10 weeks-old female C57BL/6 mice, and animals were then randomly assigned into control (vehicle PBS-treated) and treatments groups.\nFor the anti-PD-1 antibodies treatment, mice were intraperitoneally (IP) injected with anti-PD-1 antibodies at Day 6, 9, 12, 15 and 21. Furthermore, ABX196 was administered at 1 dose, intravenously or intratumorally, with one administration at Day 10 when mean of tumor size reached 100 mm^3.\nThe animal pharmacological groups for anti-tumor efficacy assessment were organized as such: • Control vehicle-treated group (PBS according to anti-PD-1 treatment schedule) • Anti-PD-1-treated group (at 1 dose, intraperitoneal administration) • ABX196-treated group (at 1 dose, Intravenous (iv) administration at Day10) • Combination-treated group (ABX196 at 1 dose, Intravenous (iv) administration at Day10 in combination with anti-PD-1 antibodies at 1 dose, intraperitoneal (ip) administration) • ABX196-treated group (at 1 dose, Intratumoral (it) administration at Day10) • Combination-treated group (ABX196 at 1 dose, Intratumoral (it) administration at Day10 in combination with anti-PD-1 antibodies at 1 dose, intraperitoneal (ip) administration)\nTumor volume and body weight of the animals were measured and recorded three times per week. A tumor volume exceeding 2000 mm3 or a weight loss greater than 15% relative to the initial weight of the animal were considered as endpoints.\nB16F10 cells were implanted subcutaneously in the right flank of C57BL/6 immunocompetent mice (8 week-old female). The implantation procedure was as follows (all steps were carried out under sterile laminar flow conditions):\nMice (body weight around 20 g) were anesthetized with an intraperitoneal injection of 90 μL of anesthetic (ie 1.5 mg/Kg Ketamine and Xylazine 150 μg/Kg). The cells to be implanted were resuspended in sterile PBS and the volume needed to implant was loaded in 1 ml syringe with a needle (1,000,000 cells/100 μL).\nAnti-PD-1 monoclonal antibodies (a-PD-1) treatment schedule was applied, at 100 μg by i.p. injection. Treatment was repeated 4 times, at Days 6, 9, 12, 15 and 18.\nABX196 was administered at Day 10 either: • by intravenous (i.v) injection at the dose of 100 ng per mouse; or • by intratumoral (i.t) injection at the dose of 10 ng per mouse\nStarting from day 6 after B16F10 cell inoculation, all experimental animal groups were monitored 3 times per week over a 4 weeks period for the following parameters: • Tumor size: measured by physical examination, 3 times per week, • Body weight: monitored 3 times per week, and • Survival: represented in a Kaplan-Meier plot."}, "CT-26 Colorectal Cancer": {"test_system": "CT-26 Colorectal Cancer", "test": "Antitumor activity of ABX196 alone or with anti-PD-1 antibody in mice bearing subcutaneous CT-26 colorectal cancer (Example 6)", "format": "in vivo, mouse", "settings": "CT-26 in BALB/c mice; ABX196 100 ng IV Q1Dx1; anti-PD-1 Ab 10 mg/kg IP TWx2", "method": "Body weights were measured twice a week."}, "Hepa 1-6 Hepatocarcinoma": {"test_system": "Hepa 1-6 Hepatocarcinoma", "settings": "for Fraction alive / Fraction without detectable metastasis: Day 61, orthotopic Hepa 1-6 in C57BL/6 mice; for Tumor invasion of the liver at day 20, Dunn's multiple comparisons test vs Vehicle: Mean rank diff.: ABX196 100 ng IV D5, sorafenib 100 mg/kg PO Q1Dx21, doxorubicin 12 mg/kg IV D5, anti-PD-1 10 mg/kg IP D7/D10/D14/D17", "quoted_text": "Tumor invasion was evaluated semi-quantitively by a visual evaluation of the percentage of tumor in the entire liver.\nOne million (1×106) of tumor cells in 50 μL of RPMI 1640 medium were transplanted via intra-splenic injection into 100 C57BL/6 mice. Briefly, a small left subcostal flank incision was made. Spleen was exteriorized. The spleen was exposed on the sterile gauze pad, and injected under visual control with the cell suspension with a 27-gauge needle. After the cell inoculation, the spleen was excised. The day of tumor cell injection was considered as DO.\nThe treatment started at D5. Ninety-nine animals (99) out of one hundred (100) were randomized according to their individual body weight into 3 groups of 13 animals and 5 groups of 12 animals using Vivo Manager® software (Biosystemes, Couternon, France). A statistical test (analysis of variance, ANOVA) was performed to test for homogeneity between groups. The treatment schedule was as follows: • Animals from group 1 received one IV injection of ABX196 vehicle at day 5, • Animals from group 2 received one daily PO administration of sorafenib at 100 mg/kg/adm for 21 consecutive days, starting at day 5, • Animals from group 3 received one IV injection of 100 ng of ABX196 on day 5 and one daily PO administration of sorafenib at 100 mg/kg/adm for 21 consecutive days, starting at day 5, • Animals from group 4 received one IV injection of Doxorubicin at 12 mg/kg on day 5, • Animals from group 5 received one IV injection of 100 ng of ABX196 and one IV injection of Doxorubicin at 12 mg/kg on day 5, • Animals from group 6 received 4 IP administrations of anti-PD-1 antibody on day 7, 10, 14 and 17 (Twice weekly×2), • Animals from group 7 received one IV injection of 100 ng of ABX196 on day 5 and 4 IP administrations of anti-PD-1 antibody on day 7, 10, 14 and 17 (Twice weekly×2).\nAt D19 and D20, 5 mice per group from group 1 to 8 were imaged (40 animals per day). A semi-quantitative analysis was then performed.\nAt the time of final mice termination (around D60), liver was weighted. The number of metastases was evaluated macroscopically and the localization, the appearance (shape, colour, consistency) and the size of each of them was recorded. Macroscopic photography of the liver was taken.\nThe treatment efficacy was assessed in terms of the effects of the test substance on the tumor volumes of treated animals relative to control animals. The following evaluation criteria of antitumor efficacy were determined: • Individual and/or mean (or median) measurement at D19-20 of tumor invasion within the liver using MRI imaging, • Measurement of circulating a-Fetoprotein in the plasma at D22, • Liver weight measured at termination, • Survival curves, • Median survival times.\nStatistical analysis of tumor invasion between vehicle and each group at day 20.\nPair wise comparison with Dunn's test"}, "[1]": {"settings": "Unpaired t test two tailed, with Welch's correction, listed as ABX196 i.t"}, "[2]": {"settings": "Unpaired t test two tailed, with Welch's correction, listed as ABX196 i.v"}, "[3]": {"settings": "MBT-2 in C3H/HeJ mice, ABX196 100 ng IV Q1Dx1, anti-PD-1 Ab 10 mg/kg IP TWx2"}},
  "note": "Where two headings read alike, the source gives them in different places.",
  "data": [
    {"smiles": "CCCCCCCCCCCCCCCCCCCCCCCC(=O)N[C@@H](CO[C@H]1O[C@H](CNC(C)=O)[C@H](O)[C@H](O)[C@H]1O)[C@H](O)[C@H](O)CCCCCCCCCCCCCC", "note": "[ABX196]", "values": [
      {"measurement": "Effect on tumor volume (in words)", "setting": "Melanoma B16F10 tumor; B16F10 bearing mice, FIGS. 5 and 6", "result": "transient effect"},
      {"measurement": "T/C (antitumor activity index)", "setting": "Melanoma B16F10 tumor; listed as ABX196 it", "result": 53},
      {"measurement": "T/C (antitumor activity index)", "setting": "Melanoma B16F10 tumor; listed as ABX196 iv", "result": 51},
      {"measurement": "Mean Tumor Volume at Day 17 (p value) vs ABX196 i.v", "setting": "Melanoma B16F10 tumor; Unpaired t test two tailed, with Welch's correction, vs ABX196 i.v", "result": 0.0554},
      {"measurement": "Mean Tumor Volume at Day 17 (p value) vs Vehicle", "setting": "Melanoma B16F10 tumor; [1]", "result": 0.8942},
      {"measurement": "Mean Tumor Volume at Day 17 (p value) vs Vehicle", "setting": "Melanoma B16F10 tumor; [2]", "result": 0.2838},
      {"measurement": "Mean Tumor Volume at Day 17 (p value) vs αPD-1 + ABX196 i.v", "setting": "Melanoma B16F10 tumor; Unpaired t test two tailed, with Welch's correction, vs αPD-1 + ABX196 i.v", "result": "<0.0001"},
      {"measurement": "Mean Tumor Volume at Day 17 (p value) vs αPD-1", "setting": "Melanoma B16F10 tumor; [1]", "result": 0.2031},
      {"measurement": "Mean Tumor Volume at Day 17 (p value) vs αPD-1", "setting": "Melanoma B16F10 tumor; [2]", "result": 0.7081},
      {"measurement": "Mean Tumor Volume at Day 17 (Significativity) vs αPD-1 + ABX196 i.v", "setting": "Melanoma B16F10 tumor; vs αPD-1 + ABX196 i.v", "result": "**** (****p < 0.0001)"},
      {"measurement": "T/C (antitumor activity index)", "setting": "CT-26 Colorectal Cancer", "result": 51},
      {"measurement": "TGI (antitumor activity index)", "setting": "CT-26 Colorectal Cancer", "result": 72},
      {"measurement": "Statistical analysis of mice survival, pairwise p vs ABX196 + Anti-PD-1", "setting": "MBT-2 Bladder Cancer; MBT-2, Log-Rank (Mantel-cox) test, vs ABX196 + Anti-PD-1", "result": "***0.0002"},
      {"measurement": "Statistical analysis of mice survival, pairwise p vs Vehicle", "setting": "MBT-2 Bladder Cancer; MBT-2, Log-Rank (Mantel-cox) test, vs Vehicle", "result": "*0.02"},
      {"measurement": "Median Survival", "setting": "MBT-2 Bladder Cancer; MBT-2 bearing mice, ABX196 100 ng IV, anti-PD-1 Ab 10 mg/kg IP TWx2", "result": 27, "unit": "days"},
      {"measurement": "T/C (antitumor activity index)", "setting": "MBT-2 Bladder Cancer; [3]", "result": 57},
      {"measurement": "TGI (antitumor activity index)", "setting": "MBT-2 Bladder Cancer; [3]", "result": 43}
    ]},
    {"smiles": "COc1cccc2c1C(=O)c1c(O)c3c(c(O)c1C2=O)C[C@@](O)(C(=O)CO)C[C@@H]3O[C@H]1C[C@H](N)[C@H](O)[C@H](C)O1", "note": "[Doxorubicin, doxorubicin]", "values": [
      {"measurement": "Tumor growth in comparison to the vehicle-treated group (in words)", "setting": "B16-F10 melanoma; B16-F10 tumors in C57BL/6 mice, FIGS. 1 and 3", "result": "weak and non-significant"},
      {"measurement": "Median Survival", "setting": "B16-F10 melanoma; C57BL/6 mice, s.c. B16-F10 (1×10^6 cells), CL II-TRP2/ABX196 50 μg/1 μg IV D3, anti-PD-1 Ab 10 mg/kg IP D10/D14/D17/D21, doxorubicin 12 mg/kg IV D7", "result": 21, "unit": "days"},
      {"measurement": "Statistical analysis of tumor growth at D17, pairwise comparison with TRP2-ABX196", "setting": "B16-F10 melanoma; D17, Dunn's multiple comparison test, vs TRP2-ABX196", "result": "ns"},
      {"measurement": "Statistical analysis of tumor growth at D17, pairwise comparison with TRP2-ABX196 + Doxo.", "setting": "B16-F10 melanoma; D17, Dunn's multiple comparison test, vs TRP2-ABX196 + Doxo.", "result": "* (*P < 0.05)"},
      {"measurement": "Statistical analysis of tumor growth at D17, pairwise comparison with TRP2-ABX196 + α-PD-1", "setting": "B16-F10 melanoma; D17, Dunn's multiple comparison test, vs TRP2-ABX196 + α-PD-1", "result": "ns"},
      {"measurement": "Statistical analysis of tumor growth at D17, pairwise comparison with Vehic.", "setting": "B16-F10 melanoma; D17, Dunn's multiple comparison test, vs Vehic.", "result": "ns"},
      {"measurement": "Statistical analysis of tumor growth at D17, pairwise comparison with α-PD-1", "setting": "B16-F10 melanoma; D17, Dunn's multiple comparison test, vs α-PD-1", "result": "ns"},
      {"measurement": "Statistical analysis of tumor growth at D19, pairwise comparison with TRP2-ABX196", "setting": "B16-F10 melanoma; D19, Dunn's multiple comparison test, vs TRP2-ABX196", "result": "ns"},
      {"measurement": "Statistical analysis of tumor growth at D19, pairwise comparison with TRP2-ABX196 + Doxo.", "setting": "B16-F10 melanoma; D19, Dunn's multiple comparison test, vs TRP2-ABX196 + Doxo.", "result": "* (*P < 0.05)"},
      {"measurement": "Statistical analysis of tumor growth at D19, pairwise comparison with TRP2-ABX196 + α-PD-1", "setting": "B16-F10 melanoma; D19, Dunn's multiple comparison test, vs TRP2-ABX196 + α-PD-1", "result": "ns"},
      {"measurement": "Statistical analysis of tumor growth at D19, pairwise comparison with Vehic.", "setting": "B16-F10 melanoma; D19, Dunn's multiple comparison test, vs Vehic.", "result": "ns"},
      {"measurement": "Statistical analysis of tumor growth at D19, pairwise comparison with α-PD-1", "setting": "B16-F10 melanoma; D19, Dunn's multiple comparison test, vs α-PD-1", "result": "ns"},
      {"measurement": "Statistical analysis of mice survival, pairwise P vs α-PD-1 (row head as printed)", "setting": "B16-F10 melanoma; Log-rank (Mantel-Cox) test, listed as printed as α-PD-1", "result": 0.624},
      {"measurement": "Statistical analysis of mice survival, pairwise P vs Vehicle", "setting": "B16-F10 melanoma; Log-rank (Mantel-Cox) test, vs Vehicle", "result": 0.0015},
      {"measurement": "T/C (anti-tumor activity index)", "setting": "B16-F10 melanoma; day 14, median treated / median control tumor volume ×100, B16-F10 in C57BL/6 mice", "result": 56.3, "unit": "%"},
      {"measurement": "Fraction alive", "setting": "Hepa 1-6 Hepatocarcinoma", "result": "9/12"},
      {"measurement": "Fraction without detectable metastasis", "setting": "Hepa 1-6 Hepatocarcinoma", "result": "9/12"},
      {"measurement": "Tumor invasion of the liver at day 20, Dunn's multiple comparisons test vs Vehicle: Mean rank diff.", "setting": "Hepa 1-6 Hepatocarcinoma; MRI, day 20", "result": 28.52},
      {"measurement": "Tumor invasion of the liver at day 20, Dunn's multiple comparisons test vs Vehicle: Significant?", "setting": "Hepa 1-6 Hepatocarcinoma; MRI, day 20, vs Vehicle", "result": "Yes"}
    ]},
    {"smiles": "CNC(=O)c1cc(Oc2ccc(NC(=O)Nc3ccc(Cl)c(C(F)(F)F)c3)cc2)ccn1", "note": "[Sorafenib]", "values": [
      {"measurement": "Fraction alive", "setting": "Hepa 1-6 Hepatocarcinoma", "result": "5/13"},
      {"measurement": "Fraction without detectable metastasis", "setting": "Hepa 1-6 Hepatocarcinoma", "result": "5/13"},
      {"measurement": "Tumor invasion of the liver at day 20, Dunn's multiple comparisons test vs Vehicle: Mean rank diff.", "setting": "Hepa 1-6 Hepatocarcinoma; MRI, day 20", "result": 8.644},
      {"measurement": "Tumor invasion of the liver at day 20, Dunn's multiple comparisons test vs Vehicle: Significant?", "setting": "Hepa 1-6 Hepatocarcinoma; MRI, day 20, vs Vehicle", "result": "No"},
      {"measurement": "Tumor invasion of the liver at day 20, Dunn's multiple comparisons test vs Vehicle: Summary", "setting": "Hepa 1-6 Hepatocarcinoma; MRI, day 20, vs Vehicle", "result": "ns"}
    ]}
  ]
}
